Data taken from patent US20090209601A1, “USE OF RXR AGONISTS FOR THE TREATMENT OF OSTEOARTHRITIS” (Wyeth, priority 2008, published 2009).

Key:
[1] = tested on: RXRα; assay: RXRα expression by qRT-PCR in cytokine-treated primary articular chondrocytes; format: cell-based; conditions: primary human articular chondrocytes (n=4 donors), monolayer culture, 18 hours; IL-1β 1 ng/ml, TNFα 10 ng/ml; vs vehicle/untreated
Procedure: (§1) For isolation of RNA from chondrocytes in monolayer culture, pellets were digested with collagenase (2.5 mg/ml, Sigma, St Louis, Mo.) and RNA was subsequently prepared using TRIzol reagent (Invitrogen) according to the manufacturer's protocol. Primary chondrocytes in monolayer culture were lysed by direct addition of TRIzol reagent followed by standard TRIzol RNA purification methodologies.
(§2) Chondrocytes were isolated from fresh human articular cartilage using a standard method previously described (Heinlein et al., Endocr. Rev. 25:276-308 (2004)). Cells were cultured in 10% FBS containing DMEM/F12 growth media for 2-3 days in 12 well culture plates at a density of 1-2×10^6 cells/well. Chondrocyte cultures were stimulated with cytokines (TNFα: 10 ng/ml; IL-1β: 1 ng/ml) for 18 hours.
(§3) cDNA was prepared from purified RNA using the High-Capacity cDNA Archive Kit (Applied Biosystems, catalog #4322171) according to the manufacturer's instructions. Quantitative real-time PCR was performed using either human TaqMan® Gene Expression assays or TaqMan® Low Density Arrays (TLDA) from Applied Biosystems. Thermal cycling was performed using either an ABI Prism 7900 Sequence Detection System (for TLDA) or an ABI Prism 7700 Sequence Detection System (for individual TaqMan® Gene Expression Assays). […]

[2] = tested on: RXRγ; assay: RXRγ expression by qRT-PCR in cytokine-treated primary articular chondrocytes; format: cell-based; conditions: primary human articular chondrocytes (n=4 donors), monolayer culture, 18 hours; IL-1β 1 ng/ml, TNFα 10 ng/ml; vs vehicle/untreated
Procedure: as §1, §2, §3

IL-1: inflammatory cytokine purchased from R&D Systems, used to stimulate chondrocyte cultures
RXRα expression [1]: significantly reduced
RXRγ expression [2]: not
